Where only a bound is given, the exact number is not on record here.

Assay [1] in a line: Compound was evaluated for the inhibition of Chymotrypsinogen.
A further assay concerns the target T1, Chymotrypsin-C (Homo sapiens, UniProt Q99895).
T1 sequence (Q99895 whole entry): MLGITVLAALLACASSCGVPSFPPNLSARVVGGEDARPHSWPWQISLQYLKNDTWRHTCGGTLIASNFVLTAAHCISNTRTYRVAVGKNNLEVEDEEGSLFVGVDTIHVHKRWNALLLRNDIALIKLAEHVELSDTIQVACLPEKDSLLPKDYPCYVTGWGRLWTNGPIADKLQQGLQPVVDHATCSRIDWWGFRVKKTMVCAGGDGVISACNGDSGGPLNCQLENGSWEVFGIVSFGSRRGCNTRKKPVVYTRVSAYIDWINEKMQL
Nature of the assay: ChEBML_49751. On the procedure: Compound was evaluated for the inhibition of Chymotrypsinogen

What is called IC50 is the midpoint of a concentration-inhibition curve. Read a low IC50 as inhibition by little substance. Consider `N=C(N)CCCC[C@H]1C(=O)O[C@H]2CCC[C@@H]21`, for which, in assay [1], the concentration for half-maximal inhibition (IC50) is > 100 µM.
The same measure, in the same setting: with `N=C(N)c1cccc(C[C@H]2C(=O)O[C@H]3CCC[C@@H]32)c1` [3-((3R,3aR,6aS)-2-Oxo-hexahydro-cyclopenta[b]furan-3-ylmethyl)-benzamidine; compound with acetic acid] the figure was > 100 µM.
`N=C(N)c1ccc(C[C@H]2C(=O)O[C@H]3CCC[C@@H]32)cc1` [4-((3R,3aR,6aS)-2-Oxo-hexahydro-cyclopenta[b]furan-3-ylmethyl)-benzamidine; compound with acetic acid]: on Chymotrypsin-C, the IC50 was > 100 µM.
On to `O=C1O[C@H]2CCC[C@@H]2[C@H]1Cc1ccccc1` [(3R,3aR,6aS)-3-Benzyl-hexahydro-cyclopenta[b]furan-2-one], for which the IC50 in assay [1] is > 100 µM.
Still for that read-out and setting: with `O=C1O[C@H]2CCC[C@@H]2[C@H]1Sc1ccccc1` [(3R,3aS,6aS)-3-Phenylsulfanyl-hexahydro-cyclopenta[b]furan-2-one] the figure was > 0.1 µM; with `CC(C)=CC(=O)C[C@@H]1C(=O)O[C@H]2CCC[C@@H]21` [(3S,3aR,6aS)-3-(4-Methyl-2-oxo-pent-3-enyl)-hexahydro-cyclopenta[b]furan-2-one], > 100 µM.
Same read-out and setting: with `O=C1O[C@H]2CCC[C@@H]2[C@@H]1Cc1ccccc1` [(3S,3aR,6aS)-3-Benzyl-hexahydro-cyclopenta[b]furan-2-one] the figure was > 100 µM; with `O=C1O[C@H]2CCC[C@@H]2[C@@H]1Sc1ccccc1` [(3S,3aS,6aS)-3-Phenylsulfanyl-hexahydro-cyclopenta[b]furan-2-one], > 100 µM.

The values are drawn from BindingDB's records for doi:10.1016/S0960-894X(98)00531-9 (Glaxo Wellcome Research and Development, 1999).
